{
  "source": "patent US20110288017A1",
  "about": "“APO-LIPOPROTEIN PROPEPTIDE” (priority 2010, published 2011)",
  "key": {"human epithelial cells": {"system": "human epithelial cells", "assay": "Confocal microscopy of epithelial cells treated with fluorescently labeled propeptide", "assay_type": "cell-based", "excerpt": "(§1) A peptide with the amino acid sequence WEFWQQ (corresponding to the rat sequence of the Apo AI propeptide) containing a fluorescein group attached to the N-terminus was custom synthesized by Cambridge biochemical reagents. Synthetic version of the peptide was made using standard Merrifield peptide synthesis techniques (http://en.wikipedia.org/wiki/Peptide_synthesis). Other standard techniques that would apply here would be the use of bacteria to synthesize large quantities of the peptide (http://en.wikipedia.org/wiki/Recombinant_DNA).\n(§2) Liver tissue was obtained from lean Zucker rats and placed in liver digest media. The liver digest media was then drained into a conical vial and the liver was placed in another sterile beaker of hepatozyme wash media. Clean gauze was placed at the opening to the conical vials and the liver was washed with the hepatozyme wash media yet again. This process filtered the liver cells into the conical vials. The cells were centrifuged for five minutes at 6000 rpm. The cells were washed thoroughly with hepatozyme wash media and then resuspended in 5% Fetal Bovine Serum, 2 mM glutamine hepatozyme wash medium and pipetted into collagen wells. The collagen well plates were incubated at 37° Celsius and 5% CO2. After 19 hours, the media was replaced with clean, fresh Hepatozyme-SFM (3 mL). The media was further supplemented with L-glutamine (2 mM) after 23 hours. […]"}, "[1]": {"assay": "Modified Western blot: native PAGE gel of liver lysate incubated with fluorescent propeptide", "assay_type": "binding, rat", "conditions": "FIG. 4", "excerpt": "(§3) Rat liver tissue from an old (23 months) rat and mouse liver tissue from a young mouse (3 months) was obtained from Dr. Eric R. Blough (Biology department, Marshall University, Huntington, W. Va.). 0.104 g of liver tissue from the young mouse and 0.20 g of tissue from the old rat were placed in separate microcentrifuge tubes and washed thoroughly with phosphate buffered saline (“PBS”).\n(§4) Rat liver tissue was lysed using CellLytic-MT lysis buffer (Sigma) following the procedure provided from Sigma. Along with the lysis buffer, a protease inhibitor cocktail containing pepstatin, aprotinin, and leupeptin was added. The samples were then centrifuged for 15 minutes at 14,000 rpm. Supernatant containing the cellular proteins was pulled from the samples and centrifuged for another 10 minutes.\n(§5) Proteins from the lysate were separated by Native PAGE on a 12% polyacrylamide gel. The gel was run using Tris/Glycine running buffer for one hour at 200 V.\n(§6) After protein separation by PAGE was complete, a picture of the gel was taken using an ultraviolet (“UV”) lamp to excite any fluorescent molecules. The UV exposure time was 20 s. The gel was then incubated with the fluorescent labeled Apo AI propeptide in Tris buffered saline with 5% Tween (“TBST”) overnight on a rocking platform. Another picture of the gel was taken using the same UV exposure time as the initial picture. […]"}, "oxysterol receptor LXRβ": {"target": "T1, oxysterol receptor LXRβ (Rattus norvegicus, UniProt Q62755)", "T1 construct": "Liver tissue from a lean Zucker rat was lysed; from tissue; host or cells: liver of lean Zucker rat (lysate, CellLytic-MT buffer)", "T1 sequence (Q62755 1-446)": "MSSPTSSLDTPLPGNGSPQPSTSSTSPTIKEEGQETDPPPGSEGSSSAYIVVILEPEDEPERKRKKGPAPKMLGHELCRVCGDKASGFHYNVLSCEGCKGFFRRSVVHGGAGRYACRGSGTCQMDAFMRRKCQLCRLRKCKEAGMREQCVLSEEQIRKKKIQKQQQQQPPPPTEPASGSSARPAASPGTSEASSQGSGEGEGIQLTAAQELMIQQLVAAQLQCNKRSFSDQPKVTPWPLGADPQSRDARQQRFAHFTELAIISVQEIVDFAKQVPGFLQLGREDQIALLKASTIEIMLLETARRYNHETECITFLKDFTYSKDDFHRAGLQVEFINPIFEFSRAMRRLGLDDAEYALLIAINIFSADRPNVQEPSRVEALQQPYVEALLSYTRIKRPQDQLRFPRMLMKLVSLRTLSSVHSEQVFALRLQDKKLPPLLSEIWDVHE", "assay": "Peptide bead pull-down from liver lysate, SDS-PAGE, MALDI-TOF peptide mass fingerprint", "assay_type": "binding", "conditions": "lean Zucker rat liver lysate; peptide attached to benzyloxybenzylbromide resin at N-terminus; Mascot search; FIG. 6", "excerpt": "The Apo AI propeptide was attached to benzyloxybenzylbromide resin at its N-terminus. Rat liver tissue was lysed using CellLytic-MT lysis buffer using the procedure outlined above. This buffer may be purchased from Sigma-Aldrich Corp. (“Sigma”) (St. Louis, Mo.). […] The protein lysate was removed and added to the peptide modified beads. The solution was shaken for one hour; the supernatant was then removed leaving only the resin beads. The resin beads were washed three times with PBS, and then 30 μl of gel loading solution was added to the resin beads. The solution was heated at 100° C. for five minutes and then loaded onto a polyacrylamide gel (4-20% polyacrylamide) and separated by SDS-PAGE.\nProtein bands of interest were cut from the gel and digested with trypsin overnight following the procedure used at University of California, San Francisco (http://donatello.ucsf.edu/ingel.html). The peptide fragments were analyzed on a Bruker MALDI-TOF mass spectrometer which provided the peptide fragment molecular weight maps of the proteins for protein identification.\nAnother set of experiments were designed to determine the identity of any proteins capable of binding to the Apo AI propeptide. The Apo AI propeptide, WEFWQQ, was attached to benzyloxybenzylbromide resin beads at its N-terminus. […]"}, "Zucker rat liver cells": {"system": "Zucker rat liver cells", "assay": "Confocal microscopy of liver cells treated with fluorescently labeled propeptide", "assay_type": "cell-based", "excerpt": "as §1, §2"}, "[2]": {"assay": "Modified Western blot: native PAGE gel of liver lysate incubated with fluorescent propeptide", "assay_type": "binding", "conditions": "young mouse (3 months) liver lysate, FIG. 5 Arrow 1", "excerpt": "as §3, §4, §5, §6"}},
  "data": [
    {"substance": "WEFWQQ (PROPEP (1)..(6); listed as Rattus norvegicus)", "values": [
      {"measurement": "time to entry into cells after peptide application", "setting": "human epithelial cells", "value": "within seconds"},
      {"measurement": "binding to a protein on the gel (new fluorescent band after incubation)", "setting": "[1]; old rat (23 months) liver lysate, overnight incubation", "value": "binding to a protein on the gel"},
      {"measurement": "fluorescence of higher molecular weight band (possibly DNA) after peptide incubation", "setting": "[1]; old rat liver lysate", "value": "increase in the fluorescence intensity of a higher molecular weight band"},
      {"measurement": "identity of the protein bound to the peptide beads (band at about 45 kDa)", "setting": "oxysterol receptor LXRβ", "value": "identified the protein as the oxysterol receptor LXRβ"},
      {"measurement": "entry of the propeptide into cells and nucleus (confocal image)", "setting": "Zucker rat liver cells; Zucker rat liver cells, peptide labeled at N-terminus with fluorescein, FIG. 1", "value": "clearly entering the cells and entering the nucleus of the cells"},
      {"measurement": "time to entry into cells after peptide application", "setting": "Zucker rat liver cells; liver cells, fluorescently labeled peptide", "value": "within seconds"},
      {"measurement": "fluorescent band after incubation with the peptide", "setting": "[2]", "value": "same band as was seen in FIG. 4"}
    ]}
  ]
}
